Entries after “also recorded” stand apart in the source; their conditions may differ.
Tests used:
SLAMF7-K562 = assay: IFN-gamma ELISA, CAR T cells cultured overnight with SLAMF7-K562 target cells; assay type: cell-based, human
Source text: (§1) MM.1S is a SLAMF7^+ multiple myeloma cell line that was obtained from American Type Culture Collection (ATCC). A549 is a BCMA-negative lung cancer cell line (ATCC). TC71 is a BCMA-negative sarcoma cell line. CCRF-CEM, 293T, and A549 are SLAMF7-negative cell lines (ATCC). COL0207, HepG2, U251, Panc10.05, and TC71 are […] that were kind gifts from Dr. Steven Rosenberg, National Cancer Institute. SLAMF7-K562 are K562 cells (ATCC) which were transduced with the gene for full-length SLAMF7. SLAMF7-RPMI are RPMI8226 cells (ATCC) which were transduced with the gene for full-length SLAMF7. NGFR-K562 are K562 cells which were transduced with the gene for low-affinity nerve growth factor (Kochenderfer et al., J. Immunother., 32(7): 689-702 (2009)). All of the human samples mentioned were obtained from patients enrolled in IRB-approved clinical trials at the National Cancer Institute.
(§2) One-hundred thousand SLAMF7^+ or SLAMF7-negative target cells were combined with 100,000 CAR-transduced T cells in duplicate wells of a 96 well round bottom plate in 200 µL of AIM V™ medium (Invitrogen) plus 5% human serum. The plates were incubated at 37° C. for 18-20 hours. Following the incubation, ELISAs (enzyme-linked immunosorbent assays) for IFNγ were performed by using standard methods.
The T cells columns indicate whether T cells were transduced with Luc90-CD828Z, Luc63-CD828Z, or were untransduced. The % CAR^+ in Table B-1 was determined by staining the T cells with Protein L. Except for the % CAR^+ column, all values are pg/mL of IFN-gamma. T cells that were either untransduced or transduced with one of the indicated CARs were cultured with target cells overnight and a standard IFN-gamma ELISA was performed on the culture supernatant.
(§3) All values are pg/mL of IFN-gamma. T cells that were either untransduced or transduced with one of the indicated CARs were cultured with target cells overnight, and a standard IFN-gamma ELISA was performed on the culture supernatant.

COLO 205 = assay: IFN-gamma ELISA, CAR T cells with COLO 205 target cells; assay type: cell-based, human; details: Table B-1
Source text: as §1
(§4) One-hundred thousand SLAMF7^+ or SLAMF7-negative target cells were combined with 100,000 CAR-transduced T cells in duplicate wells of a 96 well round bottom plate in 200 µL of AIM V™ medium (Invitrogen) plus 5% human serum. […]
(§5) The T cells columns indicate whether T cells were transduced with Luc90-CD828Z, Luc63-CD828Z, or were untransduced. The % CAR^+ in Table B-1 was determined by staining the T cells with Protein L. Except for the % CAR^+ column, all values are pg/mL of IFN-gamma. […]

SLAMF7^+ target cells = assay: IFN-gamma ELISA and functional assays; assay type: cell-based, human
Method: as §2
CAR-expressing T cells cultured alone produced very low levels of IFNγ. IFNγ production of T cells expressing a CAR with a 4-1BB moiety, Luc90-CD8BBZ, was compared to IFNγ production of T cells expressing Luc90-CD828Z (Table C). […] Low levels of soluble SLAMF7 are found in the serum of some MM patients (see Tai, et al., Blood, 112(4): 1329-1337 (2008)). IFNγ ELISA assays were conducted to determine if adding SLAMF7 to cultures of anti-SLAMF7 CAR T cells plus target cells could block IFNγ release by the CAR T cells (Table D). IFNγ release by the CART cells was used as a measure recognition of the SLAMF7^+ target cells by the CAR T cells. The concentrations of soluble SLAMF7 added to the cultures were similar to those found in the blood of patients. Blocking of SLAMF7^+ target cell recognition by the soluble SLAMF7 was not observed. Also, activation of the anti-SLAMF7 CAR T cells by the soluble SLAMF7 was not observed.

SLAMF7-K562 target cells = assay: CFSE proliferation assay; assay type: cell-based, human; details: SLAMF7-K562 versus NGFR-K562 target cells, 4 days (FIGS. 8B, 8C)
Source text: Cocultures were set up in 24-well plates. Target cells included in cocultures were either 0.5×10^6 irradiated SLAMF7-K562 cells or 0.5×10^6 irradiated NGFR-K562 cells. The cocultures also included 1×10^6 T cells from cultures that had been transduced with either […]. The T cells were labeled with carboxy fluorescein diacetate succinimidyl ester (CFSE, Invitrogen) as previously described. The medium used in the cocultures was AIM V™ (Invitrogen) plus 5% human AB serum. IL-2 was not added to the medium. Four days after initiation, the live cells in each coculture were counted with trypan blue for dead cell exclusion, and flow cytometry was performed by Protein L staining.

TC71 = assay: IFN-gamma ELISA, CAR T cells with TC71 target cells; assay type: cell-based, human; details: Table B-2
Source text: as §1, §4, §5

CCRF-CEM = assay: IFN-gamma ELISA, CAR T cells with CCRF-CEM target cells; assay type: cell-based, human
Source text: as §1, §2, §3

H929 = assay: IFN-gamma ELISA, CAR T cells with H929 target cells; assay type: cell-based, human; details: Table C
Method: as §2, §3

HepG2 = assay: IFN-gamma ELISA, CAR T cells with HepG2 target cells; assay type: cell-based, human; details: Table B-1
Source text: as §1, §4, §5

U251 = assay: IFN-gamma ELISA, CAR T cells with U251 target cells; assay type: cell-based, human; details: Table B-2
Source text: as §1, §4, §5

[1] = test system: IC9-Luc90-CD828Z CAR T cells; assay: AP1903 abrogation of CAR T-cell activity in MM.1S tumor-bearing mice; assay type: in vivo, NSG mice; details: 2×10^6 IC9-Luc90-CD828Z T cells plus vehicle control
Method: First, MM.1S human SLAMF7^+ multiple myeloma cell line tumors were established in immunodeficient mice. In this model, the MM.1S cells formed a solid cutaneous mass. Measurable tumors were allowed to develop over 7 days, and then the mice were treated with a single intravenous infusion of MSGV1-IC9-Luc90-CD828Z-transduced human T cells. NSG mice (NOD.Cg-Prkdc^scid Il2rg^tm1Wjl/SzJ) from The Jackson Laboratory, Bar Harbor, Me., were used. Mice received intradermal injections of 4×10^6 MM.1S cells. The cells were suspended in a 1:1 mixture of MATRIGEL™ gelatinous protein mixture (BD Biosciences) and PBS (Phosphate-buffered saline) for injection. Tumors were allowed to grow for 7 days, and then each mouse received a single intravenous infusion of human T cells that were transduced with one of 3 CARs: IC9-Luc90-CD828Z (suicide gene+anti-SLAMF7 CAR), Luc90-CD828Z (anti-SLAMF7 CAR alone), or a negative-control anti-CD19 CAR Hu19-CD828Z. A 4th group was left untreated. All groups included 5 mice. After CAR T-cell infusion, the tumors were measured with calipers every 3 days. The longest length and the length perpendicular to the longest length and the tumor thickness were multiplied together to obtain the tumor volume in mm^3. When the longest length reached 15 mm, mice were sacrificed. Animal studies were approved by the National Cancer Institute Animal Care and Use Committee.
MM.1S tumors were established in NSG mice as described in Example 9. The mice were treated with 2×10^6 IC9-Luc90-CD828Z T cells. The mice received 5 mg/kg of AP1903 intraeritoneally for either 3 days or 12 days after the CAR T-cell infusion. […] Also levels of IC9-Luc90-CD828Z CART cells in the mice receiving AP1903 were reduced as compared to the mice receiving the vehicle.

Substance | IFN-gamma, target cells SLAMF7-K562 (SLAMF7-K562; Table B-1, overnight culture) [pg/mL] | IFN-gamma, target cells SLAMF7-K562 (SLAMF7-K562; Table B-2, overnight culture) [pg/mL] | IFN-gamma, target cells SLAMF7-K562 (SLAMF7-K562; Table C) [pg/mL] | IFN-gamma, target cells COLO 205 (COLO 205) [pg/mL] | function of T cells expressing the CAR, overall comparison (SLAMF7^+ target cells; ELISA assays and CD107a degranulation experiments, versus huLuc63-CD828Z) | SLAMF7-specific IFNγ release, comparison of CARs (SLAMF7^+ target cells; Luc90-CD828Z versus huLuc63-CD828Z, most experiments) | proliferation (CFSE dilution) (SLAMF7-K562 target cells) | IFN-gamma, target cells TC71 (TC71) [pg/mL] | IFN-gamma, target cells CCRF-CEM (CCRF-CEM; Table C) [pg/mL] | IFN-gamma, target cells H929 (H929) [pg/mL] | IFN-gamma, target cells HepG2 (HepG2) [pg/mL] | IFN-gamma, target cells U251 (U251) [pg/mL] | IFN-gamma, SLAMF7-K562 (SLAMF7-K562; Table E, overnight culture) [pg/mL] | tumor outcome in mice receiving vehicle instead of AP1903 [1] | IFN-gamma, CCRF-CEM (CCRF-CEM; Table E) [pg/mL]
Luc90-CD828Z: anti-SLAMF7 CAR (SEQ ID NO: 27): murine Luc90 scFv, human CD8a hinge and TM, CD28 and CD3ζ domains; tested as transduced T cells | 16579 | 20055 | 15759 | 19 | superior | greater | proliferated specifically in response to SLAMF7^+ target cells | 82 | 16 | 531 | 24 | 27 |  |  | 
IC9-Luc90-CD828Z: CAR plus suicide gene construct (SEQ ID NO: 31): IC9 suicide gene 5′ to the CAR, T2A, Luc90-CD828Z |  |  |  |  |  |  | proliferated specifically in response to SLAMF7^+ target cells; also recorded: proliferated more |  |  |  |  |  | 2225 | tumor elimination | 33

Reference: patent US11951131B2, “Anti-SLAMF7 chimeric antigen receptors” (The United States of America, as represented by the …, priority 2018, dated 2024)
